Experimental data: ChEMBL document CHEMBL3745637, “New hybrid molecules with anticonvulsant and antinociceptive activity derived from 3-methyl- or 3,3-dimethyl-1-[1-oxo-1-(4-phenylpiperazin-1-yl)propan-2-yl]pyrrolidine-2,5-diones” (Bioorg Med Chem, 2016)
The source made the active and inactive calls. The rule behind the calls is not given here.

Test system: Mus musculus
Assay: Anticonvulsant activity in Swiss mouse assessed as protection against maximal electroshock-induced seizures at 300 mg/kg, ip pretreated for 0.25 hrs
Format: functional, organism-based
Settings: not given

Compound | Activity
CC(C(=O)N1CCN(c2ccc(F)cc2)CC1)N1C(=O)CC(C)(C)C1=O (centres undefined) | inactive
CC(C(=O)N1CCN(c2ccc(C(F)(F)F)cc2)CC1)N1C(=O)CC(C)(C)C1=O (centres undefined) | inactive

Test system: Mus musculus
Assay: Anticonvulsant activity in Swiss mouse assessed as protection against maximal electroshock-induced seizures at 100 mg/kg, ip pretreated for 1 hr
Format: functional, organism-based
Settings: not given

Compound | Activity
CCC(C(=O)N1CCN(c2cccc(Cl)c2)CC1)N1C(=O)CC(C)(C)C1=O (centres undefined) | inactive
COc1cccc(N2CCN(C(=O)C(C)N3C(=O)CC(C)C3=O)CC2)c1 (centres undefined) | inactive
CC1CC(=O)N(C(C)C(=O)N2CCN(c3ccccc3)CC2)C1=O (centres undefined) | inactive
CC1CC(=O)N(C(C)C(=O)N2CCN(c3ccccc3Cl)CC2)C1=O (centres undefined) | inactive
CC1CC(=O)N(C(C)C(=O)N2CCN(c3ccccc3F)CC2)C1=O (centres undefined) | inactive
Cc1cccc(N2CCN(C(=O)C(C)N3C(=O)CC(C)(C)C3=O)CC2)c1 (centres undefined) | inactive
CC1CC(=O)N(C(C)C(=O)N2CCN(c3cccc(F)c3)CC2)C1=O (centres undefined) | inactive
COc1cccc(N2CCN(C(=O)C(C)N3C(=O)CC(C)(C)C3=O)CC2)c1 (centres undefined) | inactive
CC1CC(=O)N(C(C)C(=O)N2CCN(c3ccc(Cl)c(Cl)c3)CC2)C1=O (centres undefined) | inactive

Test system: Mus musculus
Assay: Anticonvulsant activity in Swiss mouse assessed as protection against maximal electroshock-induced seizures at 100 mg/kg, ip pretreated for 0.5 hrs
Format: functional, organism-based
Settings: not given

Compound | Activity
CCC(C(=O)N1CCN(c2cccc(Cl)c2)CC1)N1C(=O)CC(C)(C)C1=O (centres undefined) | inactive
COc1cccc(N2CCN(C(=O)C(C)N3C(=O)CC(C)C3=O)CC2)c1 (centres undefined) | inactive
CC1CC(=O)N(C(C)C(=O)N2CCN(c3ccccc3)CC2)C1=O (centres undefined) | inactive
CC1CC(=O)N(C(C)C(=O)N2CCN(c3ccccc3Cl)CC2)C1=O (centres undefined) | inactive
CC1CC(=O)N(C(C)C(=O)N2CCN(c3ccccc3F)CC2)C1=O (centres undefined) | inactive
Cc1cccc(N2CCN(C(=O)C(C)N3C(=O)CC(C)(C)C3=O)CC2)c1 (centres undefined) | inactive
CC1CC(=O)N(C(C)C(=O)N2CCN(c3cccc(F)c3)CC2)C1=O (centres undefined) | inactive
COc1cccc(N2CCN(C(=O)C(C)N3C(=O)CC(C)(C)C3=O)CC2)c1 (centres undefined) | inactive

Test system: Mus musculus
Assay: Anticonvulsant activity in Swiss mouse assessed as protection against maximal electroshock-induced seizures at 100 mg/kg, ip pretreated for 2 hrs
Format: functional, organism-based
Settings: not given

Compound | Activity
CCC(C(=O)N1CCN(c2cccc(Cl)c2)CC1)N1C(=O)CC(C)(C)C1=O (centres undefined) | inactive
COc1cccc(N2CCN(C(=O)C(C)N3C(=O)CC(C)C3=O)CC2)c1 (centres undefined) | inactive
CC1CC(=O)N(C(C)C(=O)N2CCN(c3ccccc3)CC2)C1=O (centres undefined) | inactive
CC1CC(=O)N(C(C)C(=O)N2CCN(c3ccccc3Cl)CC2)C1=O (centres undefined) | inactive
CCC(C(=O)N1CCN(c2cccc(C(F)(F)F)c2)CC1)N1C(=O)CC(C)(C)C1=O (centres undefined) | inactive
CC1CC(=O)N(C(C)C(=O)N2CCN(c3ccccc3F)CC2)C1=O (centres undefined) | inactive
Cc1cccc(N2CCN(C(=O)C(C)N3C(=O)CC(C)(C)C3=O)CC2)c1 (centres undefined) | inactive
CC(C(=O)N1CCN(c2cccc(F)c2)CC1)N1C(=O)CC(C)(C)C1=O (centres undefined) | inactive
CC1CC(=O)N(C(C)C(=O)N2CCN(c3cccc(F)c3)CC2)C1=O (centres undefined) | inactive
CC(C(=O)N1CCN(c2ccc(Cl)c(Cl)c2)CC1)N1C(=O)CC(C)(C)C1=O (centres undefined) | inactive
COc1cccc(N2CCN(C(=O)C(C)N3C(=O)CC(C)(C)C3=O)CC2)c1 (centres undefined) | inactive
CC1CC(=O)N(C(C)C(=O)N2CCN(c3ccc(Cl)c(Cl)c3)CC2)C1=O (centres undefined) | inactive

Test system: Mus musculus
Assay: Anticonvulsant activity in Swiss mouse assessed as protection against maximal electroshock-induced seizures at 100 mg/kg, ip pretreated for 0.25 hrs
Format: functional, organism-based
Settings: not given

Compound | Activity
CCC(C(=O)N1CCN(c2cccc(Cl)c2)CC1)N1C(=O)CC(C)(C)C1=O (centres undefined) | inactive
CC1CC(=O)N(C(C)C(=O)N2CCN(c3ccccc3Cl)CC2)C1=O (centres undefined) | inactive
Cc1cccc(N2CCN(C(=O)C(C)N3C(=O)CC(C)(C)C3=O)CC2)c1 (centres undefined) | inactive
COc1cccc(N2CCN(C(=O)C(C)N3C(=O)CC(C)(C)C3=O)CC2)c1 (centres undefined) | inactive

Test system: Mus musculus
Assay: Anticonvulsant activity in Swiss mouse assessed as protection against maximal electroshock-induced seizures at 300 mg/kg, ip pretreated for 1 hr
Format: functional, organism-based
Settings: not given

Compound | Activity
CC1CC(=O)N(C(C)C(=O)N2CCN(c3ccccc3F)CC2)C1=O (centres undefined) | inactive
CC1CC(=O)N(C(C)C(=O)N2CCN(c3ccc(F)cc3)CC2)C1=O (centres undefined) | inactive
CC1CC(=O)N(C(C)C(=O)N2CCN(c3cccc(F)c3)CC2)C1=O (centres undefined) | inactive
COc1cccc(N2CCN(C(=O)C(C)N3C(=O)CC(C)(C)C3=O)CC2)c1 (centres undefined) | inactive

Species on record: Rattus norvegicus
Assay: Displacement of [3H]nitrendipine from calcium channel L-Type dihydropyridine site in rat cerebral cortex at 100 uM after 120 mins by scintillation counting method
Format: tissue-based
Settings: not given

inhibition [%] | Compound
7.9 | CC1(C)O[C@@H]2[C@@H](CO[C@@]3(COS(N)(=O)=O)OC(C)(C)O[C@@H]23)O1

Test system: Mus musculus
Assay: Toxicity in Swiss mouse assessed as death at 300 mg/kg, ip measured after 0.25 hrs
Format: organism-based
Settings: in vivo

Compound | Activity
CC(C(=O)N1CCN(c2ccc(C(F)(F)F)cc2)CC1)N1C(=O)CC(C)(C)C1=O (centres undefined) | Toxic

Test system: Mus musculus
Assay: Anticonvulsant activity in Swiss mouse assessed as protection against maximal electroshock-induced seizures at 300 mg/kg, ip pretreated for 2 hrs
Format: functional, organism-based
Settings: not given

Compound | Activity
CC1CC(=O)N(C(C)C(=O)N2CCN(c3ccccc3Cl)CC2)C1=O (centres undefined) | inactive
CC1CC(=O)N(C(C)C(=O)N2CCN(c3ccccc3F)CC2)C1=O (centres undefined) | inactive
Cc1cccc(N2CCN(C(=O)C(C)N3C(=O)CC(C)(C)C3=O)CC2)c1 (centres undefined) | inactive
CC1CC(=O)N(C(C)C(=O)N2CCN(c3ccc(F)cc3)CC2)C1=O (centres undefined) | inactive
CC1CC(=O)N(C(C)C(=O)N2CCN(c3cccc(F)c3)CC2)C1=O (centres undefined) | inactive
CC1CC(=O)N(C(C)C(=O)N2CCN(c3ccc(Cl)cc3)CC2)C1=O (centres undefined) | inactive
CC(C(=O)N1CCN(c2ccc(F)cc2)CC1)N1C(=O)CC(C)(C)C1=O (centres undefined) | inactive
COc1cccc(N2CCN(C(=O)C(C)N3C(=O)CC(C)(C)C3=O)CC2)c1 (centres undefined) | inactive
